Drawing on ChEMBL document CHEMBL1146953, “Carbonic anhydrase inhibitors: cloning and sulfonamide inhibition studies of a carboxyterminal truncated alpha-carbonic anhydrase from Helicobacter pylori” (Bioorg Med Chem Lett, 2006), this text covers Ki for 26 molecules.

SMILES strings stand for the structures.

For the first test, the target named is carbonic anhydrase (Helicobacter pylori, UniProt O25798).
Sequence of carbonic anhydrase (O25798 1-202): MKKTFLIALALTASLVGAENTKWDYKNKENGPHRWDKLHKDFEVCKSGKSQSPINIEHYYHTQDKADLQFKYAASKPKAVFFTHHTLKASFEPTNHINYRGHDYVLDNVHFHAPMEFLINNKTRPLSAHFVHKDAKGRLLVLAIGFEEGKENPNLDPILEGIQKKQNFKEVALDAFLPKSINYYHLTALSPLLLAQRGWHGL
Description: (§1) Inhibition of Helicobacter pylori recombinant CA
The term Ki denotes the dissociation constant of the complex between target and ligand, obtained from inhibition or displacement. On to `NNc1ccccc1S(N)(=O)=O`, for which the Ki came to 0.562 µM.

As for `Nc1ccc(S(=O)(=O)NCc2ccc(S(N)(=O)=O)cc2)cc1`, the Ki is 0.124 µM. This Ki is about 4.5-fold lower than that of the molecule before.

`Nc1cc(Cl)c(S(N)(=O)=O)cc1S(N)(=O)=O` displayed a Ki of 0.041 µM.

For `Nc1ccc(S(N)(=O)=O)cc1I`, the Ki came out at 0.504 µM.

For the molecule `Nc1ccc(S(=O)(=O)Nc2nnc(S(N)(=O)=O)s2)cc1`, the Ki was determined as 0.213 µM.

Regarding `NS(=O)(=O)c1nnc(-c2ccccc2Cl)s1`, the inhibition constant (Ki) turned out to be 0.084 µM.

On to `Nc1nccc(Nc2ccc(S(N)(=O)=O)cc2)n1`, for which the affinity corresponds to a Ki of 0.072 µM.

`NS(=O)(=O)c1nc2ccc(O)cc2s1`: the Ki came to 0.174 µM. This Ki lies about 2.4-fold higher than the previous one.

In turn, `Nc1ccc(S(N)(=O)=O)cc1Br` had a Ki of 0.463 µM.

In turn, `Cn1nc(S(N)(=O)=O)sc1=N` gave a Ki of 0.494 µM.

For `NS(=O)(=O)c1ccc(CCO)cc1`, the inhibition constant Ki was 1.16 µM.

As to `Nc1ccc(S(N)(=O)=O)cc1F`, the Ki was found to be 1.31 µM.

`NS(=O)(=O)c1ccc(CO)cc1`: the Ki came out at 0.87 µM.

On to `NCCc1ccc(S(N)(=O)=O)cc1`, for which the Ki stood at 1.03 µM.

`Nc1ccc(S(N)(=O)=O)cc1Cl` came in with a Ki of 0.395 µM. Compared with the last molecule, the Ki is about 2.6-fold lower.

The molecule `Nc1ccc(S(=O)(=O)NCCc2ccc(S(N)(=O)=O)cc2)cc1` gave a Ki of 0.096 µM. Compared with the last molecule, the Ki is about 4.1-fold lower.

`NS(=O)(=O)c1ccc(S(=O)(=O)Nc2cccc3c(Cl)c[nH]c23)cc1` returned an inhibition constant (Ki) of 0.434 µM. Against the preceding molecule, the Ki is about 4.5-fold higher.

Consider `Nc1cc(C(F)(F)F)c(S(N)(=O)=O)cc1S(N)(=O)=O` [2,4-DISULFAMYLTRIFLUOROMETHYLANILINE], for which the Ki is 0.402 µM. The Ki values of the last two molecules are within 1.5-fold of each other.

In the case of `NS(=O)(=O)c1nnc(NS(=O)(=O)c2ccccc2)s1` [BENZOLAMIDE], the inhibitory constant (Ki) was 0.287 µM.

`CCN[C@H]1CN(CCCOC)S(=O)(=O)c2sc(S(N)(=O)=O)cc21` [BRINZOLAMIDE] had a Ki of 0.246 µM. This Ki and that of the molecule before are within 1.5-fold of each other.

`NS(=O)(=O)c1ccc(C(=O)O)cc1` [CARZENIDE] displayed a Ki of 1.08 µM.

In turn, `CCOc1ccc2nc(S(N)(=O)=O)sc2c1` [ETHOXZOLAMIDE] showed a Ki of 0.155 µM.

Consider `NCc1ccc(S(N)(=O)=O)cc1` [MAFENIDE], for which the affinity corresponds to a Ki of 0.83 µM.

Molecule `Cc1ccc(S(N)(=O)=O)cc1` [P-TOLUENESULFONAMIDE] displayed a Ki of 0.473 µM.

`Nc1ccc(S(N)(=O)=O)cc1` [SULFANILAMIDE] yielded a Ki of 0.431 µM. This Ki and that of the molecule before are within 1.5-fold of each other.

Another test deals with T1, Carbonic anhydrase (Helicobacter pylori (strain ATCC 700392 / 26695) (Campylobacterpylori), UniProt O24855).
T1 sequence (O24855 whole entry): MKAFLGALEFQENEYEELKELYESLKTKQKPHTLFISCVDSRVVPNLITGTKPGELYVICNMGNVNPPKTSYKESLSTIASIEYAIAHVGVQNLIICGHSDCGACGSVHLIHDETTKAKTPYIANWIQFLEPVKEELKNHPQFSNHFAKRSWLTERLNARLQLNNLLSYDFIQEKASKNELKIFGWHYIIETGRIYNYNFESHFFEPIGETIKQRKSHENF
Description: as §1
As to `CC1(C)O[C@@H]2[C@@H](CO[C@@]3(COS(N)(=O)=O)OC(C)(C)O[C@@H]23)O1` [TOPIRAMATE], the Ki amounted to 0.205 µM.
